Laboratory results: patent US9458140B2, “Furanone compounds as kinase inhibitors” (Eternity Bioscience Inc., priority 2013, dated 2016)

Legend:
[1] = tested on: A375 cells; test: Cell proliferation assay (CellTiter-Glo), A375 cell growth; assay type: cell-based; conditions: 3-day treatment
Experimental: Cell proliferation assay: A375, Colo-205, Calu-6, and SW-480 cells were purchased from American Type Culture Collection (USA). All cells were cultured in the recommended medium and serum concentration. Cells were maintained at 37° C. in a humidified atmosphere with 5% CO2. For cell proliferation assay, cells were seeded in 96-well pates at a density of 1,000 to 5,000 cells per well and cultured overnight at 37° C. in a medium supplemented with 5-10% FBS. On the next day, the test articles at various concentrations or vehicle control (1% DMSO) were added into cell culture. After 3-day treatment, the growth of cells was assayed by the CellTiter-Glo® Luminestceaent Cell Viability Assay (Promega). IC50 value was calculated using GraphPad Prism by plotting the logarithm of the concentration versus percent inhibition of cell growth.

[2] = target: BRAF^V600E (Homo sapiens (Human), UniProt P15056, V600E); test: BRAF^V600E enzymatic activity assay (LanthaScreen kinase assay); assay type: biochemical; conditions: LanthaScreen TR-FRET, ATP 2 μM, 60 minutes, room temperature; read-out: BRAF^V600E Lantha IC50
Experimental: BRAF^V600E enzymatic activity assay: The BRAF^V600E enzymatic assay was performed using a LanthaScreen kinase assay kit purchased from Life Technologies (Grand Island, N.Y.). The assay was conducted according to the procedure provided in the assay kit. […] The final reaction volume for each reaction was 10 μl. The reaction was stopped by addition of 10 μl of TR-FRET dilution buffer kinase supplemented with kinase quench buffer (10 mM final) and Tb-anti-pMAP2K1 (2 nM final). […] IC50 value was calculated using appropriate programs in GraphPad Prism by plotting the logarithm of the concentration versus percent inhibition.

BRAF^V600E, sequence (P15056 whole entry V600E): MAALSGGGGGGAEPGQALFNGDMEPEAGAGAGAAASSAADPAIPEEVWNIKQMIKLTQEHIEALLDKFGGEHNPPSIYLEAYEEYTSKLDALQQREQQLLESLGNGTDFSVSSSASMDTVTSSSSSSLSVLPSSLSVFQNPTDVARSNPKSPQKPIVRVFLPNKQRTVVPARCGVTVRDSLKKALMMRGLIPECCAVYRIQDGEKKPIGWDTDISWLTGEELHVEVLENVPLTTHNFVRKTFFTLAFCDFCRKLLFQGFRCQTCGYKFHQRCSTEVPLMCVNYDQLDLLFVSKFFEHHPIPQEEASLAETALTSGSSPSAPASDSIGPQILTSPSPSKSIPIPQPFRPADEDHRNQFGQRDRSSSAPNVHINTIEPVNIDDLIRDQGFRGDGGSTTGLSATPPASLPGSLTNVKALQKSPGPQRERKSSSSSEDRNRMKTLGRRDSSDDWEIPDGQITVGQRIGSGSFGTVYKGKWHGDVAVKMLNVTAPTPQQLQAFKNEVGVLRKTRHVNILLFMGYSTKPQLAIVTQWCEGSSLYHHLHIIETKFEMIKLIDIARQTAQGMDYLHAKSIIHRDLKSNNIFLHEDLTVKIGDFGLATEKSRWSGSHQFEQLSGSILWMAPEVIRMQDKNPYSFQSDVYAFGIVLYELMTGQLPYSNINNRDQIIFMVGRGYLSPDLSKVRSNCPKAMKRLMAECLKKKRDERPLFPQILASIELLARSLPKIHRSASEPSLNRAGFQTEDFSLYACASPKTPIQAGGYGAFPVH

Compound	IC50 ([1]; Homo sapiens, A-375, 72 h)	IC50 [2]	IC50 [1]
CC1(C)OC(c2ccnc(N)n2)=C(c2cc(Cl)cc(NS(=O)(=O)c3ccc(F)cc3F)c2F)C1=O [Example 13]	350 nM	–	–
CCNc1nccc(C2=C(c3cc(Cl)cc(NS(=O)(=O)c4cc(F)ccc4F)c3F)C(=O)C(C)(C)O2)n1 [Example 27]	320 nM	2.8 nM	–
CCCS(=O)(=O)Nc1cc(Cl)cc(C2=C(c3ccnc(N)n3)OC(C)(CC(C)C)C2=O)c1F (stereo not drawn) [Example 16]	250 nM	70 nM	–
CC1(C)OC(c2ccnc(NCCO)n2)=C(c2cc(Cl)cc(NS(=O)(=O)c3cc(F)ccc3F)c2F)C1=O [Example 25]	160 nM	11 nM	–
CC(C)CC1(C)OC(c2ccnc(NCc3nccs3)n2)=C(c2cccc(NS(=O)(=O)c3c(F)cccc3F)c2F)C1=O (stereo not drawn) [Example 8]	27000 nM	260 nM	–
COC(=O)N[C@@H](C)CNc1nccc(C2=C(c3cccc(NS(=O)(=O)c4c(F)cccc4F)c3F)C(=O)C(C)(CC(C)C)O2)n1 (stereo partly drawn) [Example 7]	870 nM	27 nM	–
CC1(C)OC(c2ccnc(NCCC#N)n2)=C(c2cccc(NS(=O)(=O)c3c(F)cccc3F)c2F)C1=O [Example 3]	470 nM	13 nM	–
Nc1nccc(C2=C(c3cccc(NS(=O)(=O)c4c(F)cccc4F)c3F)C(=O)C3(CCCC3)O2)n1 [Example 4]	510 nM	–	–
CC1(C)OC(c2ccnc(NCCC#N)n2)=C(c2cc(Cl)cc(NS(=O)(=O)c3c(F)cccc3F)c2F)C1=O [Example 21]	200 nM	2.5 nM	–
CC1(C)OC(c2ccnc(N)n2)=C(c2cc(Cl)cc(NS(=O)(=O)c3ccccc3F)c2F)C1=O [Example 15]	110 nM	2.5 nM	–
Nc1nccc(C2=C(c3cc(Cl)cc(NS(=O)(=O)c4c(F)cccc4F)c3F)C(=O)C3(CCCC3)O2)n1 [Example 29]	–	1.3 nM	18 nM
CC(C)CC1(C)OC(c2ccnc(NCCC#N)n2)=C(c2cc(Cl)cc(NS(=O)(=O)c3c(F)cccc3F)c2F)C1=O (stereo not drawn) [Example 20]	160 nM	29 nM	–
Nc1nccc(C2=C(c3cccc(NS(=O)(=O)c4c(F)cccc4F)c3Cl)C(=O)C3(CCCC3)O2)n1 [Example 17]	150 nM	3.7 nM	–
CC(C)CC1(C)OC(c2ccnc(NCCC#N)n2)=C(c2cccc(NS(=O)(=O)c3c(F)cccc3F)c2F)C1=O (stereo not drawn) [Example 6]	12000 nM	9.6 nM	–
CC1(C)OC(c2ccnc(N)n2)=C(c2cc(Cl)cc(NS(=O)(=O)c3cccc(F)c3)c2F)C1=O [Example 14]	120 nM	1.2 nM	–
CC(C)CC1(C)OC(c2ccnc(NCC3CCCO3)n2)=C(c2cccc(NS(=O)(=O)c3c(F)cccc3F)c2F)C1=O (stereo not drawn) [Example 10]	–	750 nM	–
CC(C)CC1(C)OC(c2ccnc(N)n2)=C(c2cccc(NS(=O)(=O)c3c(F)cccc3F)c2F)C1=O (stereo not drawn) [Example 5]	2300 nM	92 nM	–
CC(C)CC1(C)OC(c2ccnc(NC[C@@H]3CCCN3)n2)=C(c2cccc(NS(=O)(=O)c3c(F)cccc3F)c2F)C1=O (stereo partly drawn) [Example 9]	–	2000 nM	–
Nc1nccc(C2=C(c3cc(Cl)cc(NS(=O)(=O)c4cc(F)ccc4F)c3F)C(=O)C3(CCCC3)O2)n1 [Example 28]	–	2.6 nM	11 nM
Nc1nccc(C2=C(c3cc(Cl)cc(NS(=O)(=O)c4c(F)cccc4F)c3Cl)C(=O)C3(CCCC3)O2)n1 [Example 18]	7 nM	2.4 nM	–
C[C@H](O)CNc1nccc(C2=C(c3cc(Cl)cc(NS(=O)(=O)c4cc(F)ccc4F)c3F)C(=O)C(C)(C)O2)n1 [Example 24]	410 nM	24 nM	–
CC1(C)OC(c2ccnc(N)n2)=C(c2cc(Cl)cc(NS(=O)(=O)c3c(F)cccc3F)c2F)C1=O [Example 11]	18 nM	–	–
CC1(C)OC(c2ccnc(NCCC#N)n2)=C(c2cc(Cl)cc(NS(=O)(=O)c3cc(F)ccc3F)c2F)C1=O [Example 23]	51 nM	13 nM	–
CC(C)CC1(C)OC(c2ccnc(N)n2)=C(c2cc(Cl)cc(NS(=O)(=O)c3c(F)cccc3F)c2F)C1=O (stereo not drawn) [Example 19]	41 nM	27 nM	–
COC(=O)N[C@@H](C)CNc1nccc(C2=C(c3cccc(NS(=O)(=O)c4c(F)cccc4F)c3F)C(=O)C(C)(C)O2)n1 [Example 2]	630 nM	97 nM	–
CC1(C)OC(c2ccnc(N)n2)=C(c2cc(Cl)cc(NS(=O)(=O)c3cc(F)ccc3F)c2F)C1=O [Example 12]	1.4 nM	0.6 nM	–
COCCNc1nccc(C2=C(c3cc(Cl)cc(NS(=O)(=O)c4cc(F)ccc4F)c3F)C(=O)C(C)(C)O2)n1 [Example 26]	260 nM	50 nM	–
COC(=O)N[C@@H](C)CNc1nccc(C2=C(c3cc(Cl)cc(NS(=O)(=O)c4cc(F)ccc4F)c3F)C(=O)C(C)(C)O2)n1 [Example 22]	180 nM	50 nM	–
